{"source": "paper PMC6277767", "about": "“Broad and Region-Specific Impacts of the Synthetic Cannabinoid CP 55,940 in Adolescent and Adult Female Mouse Brains” (Frontiers in Molecular Neuroscience, 2018)", "tested_on": "CD1 female mouse brain lipidome", "assay": "Brain-region lipid levels (HPLC/MS/MS lipidomics) 2 h after single i.p. 3 mg/kg CP 55,940 vs vehicle", "type": "in vivo", "details": "cortex", "experimental": "The Bloomington Institutional Animal Care and Use Committee of Indiana University reviewed and approved the animal procedures. Female mice from the CD1 strain were utilized to match our study examining THC’s effects on the brain lipidome ([Leishman et al., 2018]). Mice were given a single i.p. injection of either 3 mg/kg CP or 1:1:18 cremophor:ethanol:saline vehicle (please refer to the section “3 mg/kg CP Is Relevant for Synthetic Cannabinoid Abuse and Has Stronger Effects on the Female Mouse Brain Lipidome During Adolescence” for a justification of dose and use of female mice). Three different age groups were given injections: PND 35 and PND 50 adolescents, and adult mice (PND 113). At least eight mice in each age group received CP and at least eight received vehicle. Matching the THC study time course ([Leishman et al., 2018]), mice were sacrificed via rapid decapitation 2 h after injection. Brains were immediately removed and flash-frozen in liquid nitrogen, and then stored at -80°C until dissections were performed. Brains were dissected on an ice-cold dissection plate into the following regions: STR, HIPP, CER, THAL, CTX, HYP, MID, and STEM. These abbreviations for these brain areas will be used exclusively when discussing the results generated by these specific dissections. Each dissected area was immediately placed in liquid nitrogen and then stored at -80°C until used for lipid extraction.\nTissue extracts were performed as previously described ([Bradshaw et al., 2006]; [Stuart et al., 2013]; [Raboune et al., 2014]; [Leishman et al., 2016a],[b], [2017], [2018]). First, samples were shock frozen in liquid nitrogen, weighed, and transferred to a centrifuge tube. The mass of the largest sample was multiplied by 50 to determine how many milliliters of HPLC-grade methanol (Fisher, Fair Lawn, NJ, United States) to add. Then, samples were spiked with 500 pmol deuterium-labeled NAGly (d8NAGly; Cayman Chemical, Ann Arbor, MI, United States). Samples were placed on ice in darkness for 2 h then individually homogenized and centrifuged at 19,000 × g for 20 min at 20°C. Supernatants were diluted with HPLC water (purified in house) to make a solution of 75% water, 25% supernatant. Lipids were partially purified on C18 solid phase extraction columns (Agilent, Palo Alto, CA, United States). A series of four elutions with 1.5 mL of 60%, 75%, 85%, and 100% methanol were collected ([Stuart et al., 2013]; [Leishman et al., 2016a],[b], [2018]).\nAs previously described ([Bradshaw et al., 2006]; [Tan et al., 2006]; [Smoum et al., 2010]; [Stuart et al., 2013]; [Tortoriello et al., 2013]; [Raboune et al., 2014]; [Leishman et al., 2016a],[b], [2017], [2018]), samples were analyzed using an Applied Biosystems API 3000 triple quadrupole mass spectrometer with electrospray ionization (Foster City, CA, United States). Using an Agilent XDB-C18 reversed phase analytical column and optimized mobile phase gradients, 20 μL from each elution were chromatographed. Two Shimadzu 10ADvp pumps (Columbia, MD, United States) provided the pressure for gradient elution. Mobile phase A: 20% methanol, 80% water (v/v) and 1 mM ammonium acetate (Sigma, St. Louis, MO, United States). Mobile phase B: 100% methanol, 1 mM ammonium acetate. Every method run began with 0% mobile phase B, reached 100% mobile phase B flowing at 0.2 mL/min, and gradually returned to 0% mobile phase B.\nThis screening library will be referred to as the lipidome when discussing data from this study. HPLC/MS/MS data were analyzed using Analyst software (Applied Biosystems) ([Bradshaw et al., 2006]; [Tan et al., 2006]; [Stuart et al., 2013]; [Tortoriello et al., 2013]; [Raboune et al., 2014]; [Leishman et al., 2016a],[b], [2017], [2018]). Chromatograms (Supplementary Figure 3) were generated by determining the retention time of analytes from the analytical column with a [M-1] or [M+1] parent peak and a fragmentation peak corresponding to the programmed values. […]", "key": {"[1]": {"details": "PND 50, 3 mg/kg CP 55,940, ANOVA p .000"}, "[2]": {"details": "PND 50, 3 mg/kg CP 55,940, ANOVA p .002"}, "[3]": {"details": "PND 50, 3 mg/kg CP 55,940, ANOVA p .004"}, "[4]": {"details": "PND 50, 3 mg/kg CP 55,940, ANOVA p .040"}, "[5]": {"details": "PND 50 female mice, 3mg/kg CP 55,940"}}, "data": [{"smiles": "CCCCCCC(C)(C)c1ccc([C@@H]2C[C@H](O)CC[C@H]2CCCO)c(O)c1", "note": "[CP 55,940]", "values": [{"measurement": "Arachidonic acid, Direction (relative to Veh)", "setting": "PND 50, 3 mg/kg CP 55,940", "value": "↓"}, {"measurement": "Linoleic acid, Direction (relative to Veh)", "setting": "PND 50, 3 mg/kg CP 55,940", "value": "↓"}, {"measurement": "N-arachidonoyl GABA Direction (relative to Veh)", "setting": "PND 50, 3 mg/kg CP 55,940", "value": "↓"}, {"measurement": "N-arachidonoyl alanine, Direction (relative to Veh)", "setting": "PND 50, 3 mg/kg CP 55,940", "value": "↓"}, {"measurement": "N-arachidonoyl ethanolamine, Direction (relative to Veh)", "setting": "PND 50, 3 mg/kg CP 55,940", "value": "↓"}, {"measurement": "N-arachidonoyl phenylalanine, Direction (relative to Veh)", "setting": "PND 50, 3 mg/kg CP 55,940", "value": "↓"}, {"measurement": "N-arachidonoyl taurine Direction (relative to Veh)", "setting": "PND 50, 3 mg/kg CP 55,940", "value": "↓"}, {"measurement": "N-docosahexaenoyl ethanolamine, Direction (relative to Veh)", "setting": "PND 50, 3 mg/kg CP 55,940", "value": "↓"}, {"measurement": "N-linoleoyl ethanolamine, Direction (relative to Veh)", "setting": "PND 50, 3 mg/kg CP 55,940", "value": "↓"}, {"measurement": "N-oleoyl ethanolamine, Direction (relative to Veh)", "setting": "PND 50, 3 mg/kg CP 55,940", "value": "↓"}, {"measurement": "N-oleoyl serine, Direction (relative to Veh)", "setting": "PND 50, 3 mg/kg CP 55,940", "value": "↑"}, {"measurement": "N-palmitoyl leucine, Direction (relative to Veh)", "setting": "PND 50, 3 mg/kg CP 55,940", "value": "↑"}, {"measurement": "N-palmitoyl methionine, Direction (relative to Veh)", "setting": "PND 50, 3 mg/kg CP 55,940", "value": "↑"}, {"measurement": "N-palmitoyl phenylalanine Direction (relative to Veh)", "setting": "PND 50, 3 mg/kg CP 55,940", "value": "↑"}, {"measurement": "N-palmitoyl tyrosine, Direction (relative to Veh)", "setting": "PND 50, 3 mg/kg CP 55,940", "value": "↑"}, {"measurement": "N-palmitoyl valine Direction (relative to Veh)", "setting": "PND 50, 3 mg/kg CP 55,940", "value": "↑"}, {"measurement": "N-stearoyl phenylalanine, Direction (relative to Veh)", "setting": "PND 50, 3 mg/kg CP 55,940", "value": "↑"}, {"measurement": "N-stearoyl valine Direction (relative to Veh)", "setting": "PND 50, 3 mg/kg CP 55,940", "value": "↑"}, {"measurement": "PGE2 Direction (relative to Veh)", "setting": "PND 50, 3 mg/kg CP 55,940", "value": "↓"}, {"measurement": "Linoleic acid, Magnitude (x Veh level)", "setting": "[1]", "value": 0.57, "unit": "x Veh level"}, {"measurement": "N-palmitoyl leucine, Magnitude (x Veh level)", "setting": "[1]", "value": 1.41, "unit": "x Veh level"}, {"measurement": "N-palmitoyl methionine, Magnitude (x Veh level)", "setting": "[1]", "value": 1.43, "unit": "x Veh level"}, {"measurement": "N-oleoyl ethanolamine, Magnitude (x Veh level)", "setting": "[2]", "value": 0.65, "unit": "x Veh level"}, {"measurement": "PGE2 Magnitude (x Veh level)", "setting": "[2]", "value": 0.79, "unit": "x Veh level"}, {"measurement": "N-arachidonoyl GABA Magnitude (x Veh level)", "setting": "[3]", "value": 0.86, "unit": "x Veh level"}, {"measurement": "N-arachidonoyl taurine Magnitude (x Veh level)", "setting": "[3]", "value": 0.84, "unit": "x Veh level"}, {"measurement": "2-linoleoyl glycerol Magnitude (x Veh level)", "setting": "PND 50, 3 mg/kg CP 55,940, ANOVA p .005", "value": 0.67, "unit": "x Veh level"}, {"measurement": "N-palmitoyl phenylalanine Magnitude (x Veh level)", "setting": "PND 50, 3 mg/kg CP 55,940, ANOVA p .006", "value": 1.39, "unit": "x Veh level"}, {"measurement": "N-arachidonoyl ethanolamine, Magnitude (x Veh level)", "setting": "PND 50, 3 mg/kg CP 55,940, ANOVA p .007", "value": 0.70, "unit": "x Veh level"}, {"measurement": "N-arachidonoyl alanine Magnitude (x Veh level)", "setting": "PND 50, 3 mg/kg CP 55,940, ANOVA p .012", "value": 0.75, "unit": "x Veh level"}, {"measurement": "N-docosahexaenoyl ethanolamine, Magnitude (x Veh level)", "setting": "PND 50, 3 mg/kg CP 55,940, ANOVA p .014", "value": 0.72, "unit": "x Veh level"}, {"measurement": "2-oleoyl glycerol, Magnitude (x Veh level)", "setting": "PND 50, 3 mg/kg CP 55,940, ANOVA p .018", "value": 0.88, "unit": "x Veh level"}, {"measurement": "N-palmitoyl valine Magnitude (x Veh level)", "setting": "PND 50, 3 mg/kg CP 55,940, ANOVA p .019", "value": 1.37, "unit": "x Veh level"}, {"measurement": "N-stearoyl phenylalanine, Magnitude (x Veh level)", "setting": "PND 50, 3 mg/kg CP 55,940, ANOVA p .039", "value": 1.12, "unit": "x Veh level"}, {"measurement": "Arachidonic acid, Magnitude (x Veh level)", "setting": "[4]", "value": 0.76, "unit": "x Veh level"}, {"measurement": "N-oleoyl serine, Magnitude (x Veh level)", "setting": "[4]", "value": 1.09, "unit": "x Veh level"}, {"measurement": "N-arachidonoyl phenylalanine, Magnitude (x Veh level)", "setting": "PND 50, 3 mg/kg CP 55,940, ANOVA p .044", "value": 0.78, "unit": "x Veh level"}, {"measurement": "N-palmitoyl tyrosine Magnitude (x Veh level)", "setting": "PND 50, 3 mg/kg CP 55,940, ANOVA p .053", "value": 1.25, "unit": "x Veh level"}, {"measurement": "N-linoleoyl ethanolamine, Magnitude (x Veh level)", "setting": "PND 50, 3 mg/kg CP 55,940, ANOVA p .066", "value": 0.69, "unit": "x Veh level"}, {"measurement": "N-stearoyl valine Magnitude (x Veh level)", "setting": "PND 50, 3 mg/kg CP 55,940, ANOVA p .067", "value": 1.29, "unit": "x Veh level"}, {"measurement": "2-arachidonoyl glycerol level, Mean", "setting": "[5]", "value": "2.72E-09"}, {"measurement": "2-linoleoyl glycerol level, Mean", "setting": "[5]", "value": "9.55E-11"}, {"measurement": "2-oleoyl glycerol level, Mean", "setting": "[5]", "value": "1.53E-09"}, {"measurement": "2-palmitoyl glycerol level, Mean", "setting": "[5]", "value": "5.35E-09"}, {"measurement": "6-ketoPGF1α level, Mean", "setting": "[5]", "value": "5.34E-12"}, {"measurement": "11-OH-THC level, Mean", "setting": "[5]", "value": "BDL"}, {"measurement": "11-nor-9-carboxyTHC level, Mean", "setting": "[5]", "value": "BDL"}, {"measurement": "Arachidonic acid level, Mean", "setting": "[5]", "value": "1.42E-09"}, {"measurement": "Cannabidiol level, Mean", "setting": "[5]", "value": "BDL"}, {"measurement": "Linoleic acid level, Mean", "setting": "[5]", "value": "9.48E-10"}, {"measurement": "N- stearoyl valine level, Mean", "setting": "[5]", "value": "2.32E-13"}]}]}
